“Also recorded” adds a separate entry of the source. Where two headings read alike, the source gives them in different places.
Experiments:
[1] = target: T1, binding of SARS-CoV-2 Spike protein (S1 subunit) to ACE2 (UniProt P0DTC2+Q9BYF1); assay: biochemical
T1 construct: a fusion protein of the SARS-CoV-2 spike protein S1 subunit and the horseradish peroxidase (HRP) enzyme

[2] = test system: SARS-CoV-2-infected permissive cell lines (Vero E6, Huh-7.5, A549 ACE2+, HT1080 ACE2+)
[3] = test system: SARS-CoV-2 USA-WA1/2020 virus; assay type: cell-based

T1 sequence (Q9BYF1 18-740, one chain of several): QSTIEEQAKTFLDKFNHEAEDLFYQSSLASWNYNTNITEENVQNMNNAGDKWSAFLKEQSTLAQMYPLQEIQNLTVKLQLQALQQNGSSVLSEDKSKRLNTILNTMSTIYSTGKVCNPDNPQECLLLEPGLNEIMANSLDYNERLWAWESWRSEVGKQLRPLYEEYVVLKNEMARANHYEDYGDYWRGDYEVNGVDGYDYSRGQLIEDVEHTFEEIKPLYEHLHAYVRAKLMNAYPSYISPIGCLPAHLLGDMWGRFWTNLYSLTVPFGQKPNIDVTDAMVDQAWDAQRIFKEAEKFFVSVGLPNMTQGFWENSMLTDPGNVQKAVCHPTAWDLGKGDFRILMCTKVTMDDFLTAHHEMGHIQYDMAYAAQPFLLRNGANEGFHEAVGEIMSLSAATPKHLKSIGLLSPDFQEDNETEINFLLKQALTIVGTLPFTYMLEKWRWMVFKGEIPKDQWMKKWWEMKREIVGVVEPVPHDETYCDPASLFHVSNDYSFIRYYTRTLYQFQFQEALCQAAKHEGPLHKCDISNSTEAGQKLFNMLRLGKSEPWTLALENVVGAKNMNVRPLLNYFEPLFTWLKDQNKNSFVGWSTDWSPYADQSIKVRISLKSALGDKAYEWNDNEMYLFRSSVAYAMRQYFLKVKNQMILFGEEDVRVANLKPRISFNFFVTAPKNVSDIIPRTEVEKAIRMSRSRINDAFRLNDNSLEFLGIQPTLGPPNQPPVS

| Molecule | Active (Y or N) [1] | further results |
| --- | --- | --- |
| C1=Cc2nc1cc1ccc([nH]1)c(-c1ccccc1)c1nc(cc3ccc([nH]3)c2-c2ccccc2)C=C1 [5,15-diphenyl-21H,23H-porphine] | N | – |
| C=Cc1c(C)c2cc3nc(c(CC(=O)O)c4[nH]c(cc5nc(cc1[nH]2)C(C)=C5CC)c(C)c4C(=O)O)[C@@H](CCC(=O)O)[C@@H]3C [Chlorin E6] | Y (weak) | IC50 ([1]; read-out: IC50): 5000 nM |
| C=Cc1c(C)c2cc3nc(c4c5[n-]c(cc6nc(cc1[n-]2)C(C)=C6CC)c(C)c5C(=O)[C@@H]4C(=O)OC)[C@@H](CCC(=O)OC/C=C(\C)CCC[C@H](C)CCC[C@H](C)CCCC(C)C)[C@@H]3C.[Mg+2] [Chlorophyll A] | N | – |
| C=Cc1c(C)c2cc3nc(c4c5[n-]c(cc6nc(cc1[n-]2)C(C=O)=C6CC)c(C)c5C(=O)[C@@H]4C(=O)OC)[C@@H](CCC(=O)OC/C=C(\C)CCC[C@H](C)CCC[C@H](C)CCCC(C)C)[C@@H]3C.[Mg+2] [Chlorophyll B] | N | – |
| C=Cc1c(C)c2cc3nc(c4c5[nH]c(cc6nc(cc1[nH]2)C(C)=C6CC)c(C)c5C(=O)[C@@H]4C(=O)OC)[C@@H](CCC(=O)O)[C@@H]3C [Pheophorbide A] | Y | toxicity to the infected cells relative to antiviral doses [2]: antiviral activity was detected at doses lower than the dosing where pheophorbide A was toxic; IC50 [1]: 500 nM; inhibition of the binding of SARS-CoV-2 Spike protein to ACE2 (in words) [1]: dose dependent decrease in binding; also recorded: dose-dependent inhibition; antiviral activity under light exposure versus dark [3]: generally improved; antiviral activity without photoactivation [3]: exhibit antiviral activity in the dark; antiviral effect with pre-treatment versus treatment after infection [3]: more pronounced; inhibition of SARS-CoV-2 infection in culture [3]: significantly inhibits |
| C1=Cc2cc3ccc(cc4nc(cc5ccc(cc1n2)[nH]5)C=C4)[nH]3 [Porphine] | N | – |
| C=CC1=C(C)c2cc3[nH]c(cc4nc(cc5[nH]c(cc1n2)c(C)c5CCC(=O)O)C(CCC(=O)O)=C4C)c(C)c3C=C [Protoporphyrin IX] | – | IC50 [1]: 1200 nM |
| C[n+]1ccc(-c2c3nc(c(-c4cc[n+](C)cc4)c4ccc([nH]4)c(-c4cc[n+](C)cc4)c4ccc([nH]4)c(-c4cc[n+](C)cc4)c4nc2C=C4)C=C3)cc1 [TmPyP4] | N | – |
| Coproporphyrin III | N | – |
| MnTBAP | N | – |
| N-Methyl Mesoporphyrin | N | – |
| N-Methyl Protoporphyrin | N | – |
| Verteporfin | Y | IC50 ([1]; read-out: IC50): 225 nM |
| Vitamin B12 | N | inhibition of the binding of SARS-CoV-2 Spike protein to ACE2 (in words) [1]: non-active |

Source: US20240366564A1, “Use of Chlorophyll Derivatives for the Treatment of SARS-CoV-2 Infection” (priority 2021, published 2024)
